Laboratory results as given in paper PMC5908160, “Inhibition of sperm motility in male macaques with EP055, a potential non-hormonal male contraceptive” (PLoS ONE, 2018).

System: rhesus macaque (Macaca mulatta) sperm
Assay: Sperm motility in rhesus males after i.v. infusion of EP055
Type: in vivo
Source text: Semen was collected by direct penile stimulation with a P-T Electronics Model 303 PTE 110 Volt AC stimulator equipped with electrocardiogram pad electrodes (10–35 V, 20 ms duration, 18 pulses/sec) as previously described. Semen was collected weekly for 3 weeks to establish baseline parameters for each male. Samples were inspected visually to determine sperm motility and suitability for the study. Sperm motility data from male 28106 presented in S1 Table is representative of pre-treatment samples. Immediately after collection, the seminal plug was separated from the liquefied fraction, placed into a cryovial, flash frozen in liquid nitrogen, and stored at -80C until evaluation for drug levels. Spermatozoa were prepared by centrifugation (7 min, 200 g) of the liquid portion of the ejaculate and resuspending the sperm pellet in TALP-HEPES medium containing 0.3% bovine serum albumin at 37°C. An aliquot was taken to determine concentration using a hemocytometer, percent motility and forward progression as previously described. Baseline semen samples were collected from each male twice during the week prior to treatment. Semen was collected from each male 6–8 hr, 28–30 hr, and 78 hr post-infusion of low dose EP055 (75–80 mg/kg body weight) intravenously. After a one-week recovery period, a baseline semen sample was obtained, and the following week semen samples were collected as described above after an intravenous infusion of high dose EP055 (125–130 mg/kg).
Sperm were diluted in TALP-HEPES medium containing 0.3% bovine serum albumin to achieve 50-100 sperm per field. Videos were taken using an iPhone 6s Plus positioned 12 inches from a Dell model E170Sc 17-inch LCD monitor (1280 x 1024 pixels at 60 Hz, 0.264 mm) attached to an Olympus CK40 inverted microscope using 20x magnification (10x objective). The video camera collected images at a resolution of 1080 x 1920 pixels at 30 frames per second and 401 ppi with a typical contrast ratio of 1300:1 for at least 8 seconds. The pixel size was 1.2 microns and the videos in .mp4 or .mov format. Videos were converted to .avi format using Any Video Converter (version 6.06, http://www.anvsoft.com/any-video-converter-free, Ultimate Media Solutions, AnvSoft Inc). These files were uncompressed using VirtualDub (version 1.10.2, http://www.virtualdub.org/).
Images were analyzed using the MTrackJ plug in (version 1.5.1, https://imagescience.org/meijering/software/mtrackj/) for ImageJ (1.51K, https://fiji.sc/). Briefly, files were imported as uncompressed .avi files, converted to greyscale and saved as .TIFF files. Each image was calibrated by measuring a representative sperm head (acrosomal apex to midpiece) using the Straight Edge Tool, using 5.18 microns as the standard length of a Macaca mulatta sperm head. Approximately 50 sperm per video were manually tracked for the entire length of the track and the mean curvilinear velocity of each track calculated using the MEASURE function. Tracks used in the final analysis were a minimum of 0.4 seconds.
Prior to infusion of EP055, each male was sedated with ketamine by the surgical staff at ONPRC and transported to the operating room. After positioning in dorsal recumbency, the male was intubated and placed under inhalant (isoflurane) anesthesia. Bilateral intravenous catheters were placed in cephalic veins, one for infusion and one for back-up. A percutaneous arterial line was placed in the right femoral artery for direct blood pressure measurement. Invasive blood pressure, heart rate, SpO2, and respirations were monitored by the surgical staff throughout the procedure. Initially, the low doses of EP055 in 5% DMSO-PBS 7.6 was infused by i.v. at 75-80 mg/kg, using a Medfusion 3500 pump (Smiths Medical, St. Paul, MN), and was started at a low flow rate (0.6mg/kg/min). In 3 of 4 males, a 5-10% increase in blood pressure and heart rate were noted within the first 2-3 minutes of infusion of EP055. […]

[1] = high dose 125–130 mg/kg, post-infusion
[2] = male 25854, high dose 125–130 mg/kg, 6 hrs post-iv
[3] = male 25854, high dose 125–130 mg/kg, 30 hrs post-iv
[4] = male 25854, high dose 125–130 mg/kg, 78 hrs post-iv
[5] = male 25854, high dose 125–130 mg/kg, 318 hrs post-iv
[6] = male 25854, high dose 125–130 mg/kg, 390 hrs post-iv
[7] = male 25854, high dose 125–130 mg/kg, 558 hrs post-iv
[8] = male 25854, low dose 75–80 mg/kg, 6 hrs post-iv
[9] = male 25854, low dose 75–80 mg/kg, 30 hrs post-iv
[10] = male 25854, low dose 75–80 mg/kg, 78 hrs post-iv
[11] = male 25854, low dose 75–80 mg/kg, 1206 hrs post-iv
[12] = male 25854, low dose 75–80 mg/kg, 1254 hrs post-iv
[13] = male 28043, high dose 125–130 mg/kg, 6 hrs post-iv
[14] = male 28043, high dose 125–130 mg/kg, 28 hrs post-iv
[15] = male 28043, high dose 125–130 mg/kg, 78 hrs post-iv
[16] = male 28043, high dose 125–130 mg/kg, 360 hrs post-iv
[17] = male 28043, high dose 125–130 mg/kg, 408 hrs post-iv
[18] = male 28043, high dose 125–130 mg/kg, 528 hrs post-iv
[19] = male 28043, low dose 75–80 mg/kg, 6 hrs post-iv
[20] = male 28043, low dose 75–80 mg/kg, 30 hrs post-iv
[21] = male 28043, low dose 75–80 mg/kg, 78 hrs post-iv
[22] = male 28043, low dose 75–80 mg/kg, 480 hrs post-iv
[23] = male 28043, low dose 75–80 mg/kg, 648 hrs post-iv
[24] = male 28106, high dose 125–130 mg/kg, 6 hrs post-iv

In the case of `COC(=O)NNc1nc(Nc2ccc(NC(C)=O)c(O)c2)nc(SCC(=O)O)n1` [EP055], the normal motility (high dose 125–130 mg/kg, 30 hours post-infusion) is reported as “no normal motility was observed”, the “time at which recovery of sperm motility was obvious” value [1] is reported as at most 78 h and the “time to full recovery of sperm motility in all animals” value [1] is reported as at most 18 days. The sperm motility (high dose 125–130 mg/kg, within 6 hours post-infusion, mean of 4 animals) was “approximately 20%”, the normal sperm motility (low dose 75–80 mg/kg, by 30 hours post-infusion, mean of 4 animals) was “below 32%” and the F1 [2] was 5%. For the same molecule, the F2 [2] was 80%, the Static [2] was 15% and the “VCL ± SEM” value [2] was 104.6 ± 6.9 um/sec. For the same molecule, the Clumps [3] was “Yes”, the F1 [3] was 10% and the F2 [3] was 60%. The Static [3] was 30%, the “VCL ± SEM” value [3] was 120.9 ± 4.8 um/sec and the Clumps [4] was “Few”. It also gave an F1 [4] of 20%, an F2 [4] of 25% and a Static [4] of 55%. The “VCL ± SEM” value [4] was 94.2 ± 5.0 um/sec, the F1 [5] was 20% and the F2 [5] was 20%. For the same molecule, the “F3+F4” value [5] was 10%, the Static [5] was 50% and the F1 [6] was 10%. The “F3+F4” value [6] was 70%, the Static [6] was 20% and the “VCL ± SEM” value [6] was 93.2 ± 5.0 um/sec. The F1 [7] was 1%, the “F3+F4” value [7] was 90% and the Static [7] was 9%. The Clumps [8] was “Few”, the F1 [8] was 10% and the “F3+F4” value [8] was 70%. For the same molecule, the Static [8] was 20%, the Clumps [9] was “Fewer” and the F1 [9] was 5%. The “F3+F4” value [9] was 80%, the Static [9] was 15% and the Clumps [10] was “Yes”. The F1 [10] was under 1%, the “F3+F4” value [10] was 95% and the Static [10] was 5%. The F1 [11] was 2%, the “F3+F4” value [11] was 83% and the Static [11] was 15%. The “F3+F4” value [12] was 80%, the Static [12] was 20% and the Clumps [13] was “Yes”. For the same molecule, the F1 [13] was 25%, the “F3+F4” value [13] was 50% and the Static [13] was 25%. For the same molecule, the Clumps [14] was “Yes”, the F1 [14] was 99% and the “F3+F4” value [14] was under 1%. The “VCL ± SEM” value [14] was 72.1 ± 12.4 um/sec, the Clumps [15] was “Few” and the F1 [15] was 10%. The “F3+F4” value [15] was 60%, the Static [15] was 30% and the “VCL ± SEM” value [15] was 117.5 ± 16.3. um/sec. For the same molecule, the F1 [16] was 10%, the “F3+F4” value [16] was 65% and the Static [16] was 25%. For the same molecule, the Clumps [17] was “Yes”, the F1 [17] was 5% and the “F3+F4” value [17] was 70%. The Static [17] was 25%, the F2 [18] was 5% and the “F3+F4” value [18] was 80%. For the same molecule, the Static [18] was 15%, the “VCL ± SEM” value [18] was 135.0 ± 12.6 um/sec and the Clumps [19] was “Few”. The “F3+F4” value [19] was 75%, the Static [19] was 25% and the Clumps [20] was “Yes”. For the same molecule, the F1 [20] was 20%, the “F3+F4” value [20] was 30% and the Static [20] was 50%. The Clumps [21] was “Yes”, the F1 [21] was 20% and the F2 [21] was 50%. For the same molecule, the Static [21] was 30%, the “F3+F4” value [22] was 80% and the Static [22] was 20%. For the same molecule, the F1 [23] was 5%, the “F3+F4” value [23] was 80% and the Static [23] was 15%. For the same molecule, the Clumps [24] was “Yes” and the F1 [24] was 55%.
